These results are taken from patent US7795385B2, “Use of bombesin/gastrin-releasing peptide antagonists for the treatment of inflammatory conditions, acute lung injury and bipolar disorder” (Bexar Global, Inc., priority 2004, dated 2010).

The test system of series [1] is amphetamine (AMPH)-induced hyperactivity in rats. The series can be described thus: Amphetamine-induced hyperactivity test (open field, model of mania). It is filed as in vivo, male Wistar rats. Particulars: RC-3095 0.1, 1.0 or 10.0 mg/kg i.p. As for the experimental part:
Animals. A total of 120 male Wistar rats (age, 2.5-3 months; weight, 220-340 g) from an inhouse breeding colony were used. They were housed in plastic cages, 5 to a cage, with water and food freely available, under a 12-h light/dark cycle (lights on at 7:00 h). All experimental procedures were performed in accordance with the NIH Guide for the Care and Use of Laboratory Animals and the Brazilian Society for Neuroscience and Behavior (SBNeC) recommendations for animal care.
Drugs and pharmacological procedures. d-amphetamine (AMPH, 2.0 mg/kg) and RC-3095 (a gift from Dr. J. Engel, Zentaris GmbH, Germany) were dissolved in saline (SAL, 0.9% NaCl). All solutions were prepared immediately prior to administration. Animals were given a 10 ml/kg intraperitoneal (i.p.) injection of SAL or RC-3095 (0.1, 1.0 or 10.0 mg/kg) followed by an i.p. injection of SAL or AMPH […] 30 min later. Thus, the resulting experimental groups were: SAL/SAL; SAL/AMPH, RC-3095 0.1 mg/kg/AMPH, RC-3095 1.0 mg/kg/AMPH, RC-3095 10.0 mg/kg/AMPH, RC 3095 0.1 mg/kg/SAL; RC-3095 1.0 mg/kg/SAL; and RC-3095 10.0 mg/kg/SAL.
Hyperactivity test. […] Crossings of the black lines and rearings performed were counted. […]
Statistical analysis. All data are presented as mean±S.E.M. Differences among experimental groups were determined by ANOVA. […]

Series [2] concerns patient with rheumatoid arthritis. The series can be described thus: Administration to a patient with rheumatoid arthritis. The class given is in vivo, human. Particulars: 6 mg RC-3095 twice daily s.c. As for the experimental part:
The composition consists of a white lyophilised cake in a 4 ml injection vial. One injection vial will be reconstituted with 2 ml water for injection.
A patient with rheumatoid arthritis, started on March 22 with 6 mg of RC-3095, twice daily. Application subcutaneously.
At baseline visit the patient presented with joint pain grade 3, joint inflammation grade 2 and depression grade 2.
Before start with RC-3095 they were already taken methotrexate, subcutaneously, once a week, and corticosteroids.
They were followed every two weeks by physical examination and laboratorial exams.

As for `CC(C)C[C@@H](CN[C@@H](CC(C)C)C(N)=O)NC(=O)[C@H](Cc1c[nH]cn1)NC(=O)CNC(=O)[C@@H](NC(=O)[C@H](C)NC(=O)[C@H](Cc1c[nH]c2ccccc12)NC(=O)[C@H](CCC(N)=O)NC(=O)[C@H]1Cc2c([nH]c3ccccc23)CN1)C(C)C` [RC-3095, H-D-Tpi-Gln-Trp-Ala-Val-Gly-His-Leu-psi-Leu-NH2], the “other behavioral measures (sedation)” value in series [1] was “did not alter”. Moreover, the adverse events result in series [2] is “only local (nodes and pruritus)”.
